A short description of data set [1]: Relative lipophilicity expressed as Rm value. In kind it is physicochemical. The note with it: octanol/water.
Data set [2] is described as follows: Anticonvulsant activity against audiogenic seizures in DBA/2 mice expressed as ED50 values in clonic phase. Type of data set: functional. Particulars: Mus musculus.
A short description of data set [3]: Anticonvulsant activity against audiogenic seizures in DBA/2 mice expressed as ED50 values in tonic phase. Type of data set: functional. The note with it: Mus musculus.
A short description of data set [4]: Toxic dose in DBA/2 mice. Particulars: DBA/2, mouse, in vivo. In kind it is toxicity.
The nature of data set [5]: Ratio between TD50 and ED50 from the clonic phase of audiogenic seizures. Type of data set: ADME. The note with it: read-out: Protective index.
Data set [6] in a line: Anticonvulsant activity against audiogenic seizures in DBA/2 mice in clonic phase at a time interval of 45 min after intraperitoneal administration; Values ranges from: 27.2-52.1. In kind it is functional. Particulars: Mus musculus, ip, 0.75 h.
The nature of data set [7]: Anticonvulsant activity against ATPA induced seizures in DBA/2 mice. activity is expressed as ED50 values in tonus phase; Values ranges from: 32.4-57.3. In kind it is functional. The note with it: Mus musculus.
Data set [8] in a line: Anticonvulsant activity against ATPA induced seizures in DBA/2 mice. activity is expressed as ED50 values in clonus phase; Values ranges from: 45.4-89.7. Type of data set: functional. Particulars: Mus musculus.
Data set [9] is described as follows: Toxic does was determined in DBA/2 mice; Values ranges from: 47.5-122. The note with it: DBA/2, mouse. In kind it is toxicity.
The nature of data set [10]: Ratio between TD50 and ED50 from the clonic phase of audiogenic seizures in mice. In kind it is ADME, organism-based. The note with it: mouse, in vivo; read-out: Protective index.
Data set [11] can be described thus: Toxic dose in DBA/2 mice; Values ranges from: 52.0-194. In kind it is toxicity. Particulars: DBA/2, mouse, in vivo.

The structures appear in SMILES notation.

As usually defined, the ED50 is the midpoint of the dose-response relation. A high value points to weaker potency. The TD50 is the dose at which the toxic effect under study appears in half of the subjects.

In turn, `CCNC(=O)n1nc(-c2ccc(N)cc2)c2cc3c(cc2c1=O)OCO3` had a Rm in data set [1] of -0.235. Further, the results for the ED50 in [2] and in [3] were 42.6 µmol/kg and 35.1 µmol/kg, respectively. For the same molecule, the TD50 in [4] is 91.1 µmol/kg. Further, the selectivity ratio in data set [5] worked out at 2.1.

With `Nc1ccc(-c2nn(C(=O)NC3CCCCC3)c(=O)c3cc4c(cc23)OCO4)cc1`, the Rm in data set [1] stood at 0.108. Further, the ED50 in data set [2] was 28.4 µmol/kg; in [3], 26.2 µmol/kg. For the same molecule, the TD50 in data set [4] came to 63.8 µmol/kg. Also, the selectivity ratio in data set [5] was found to be 2.2.

The molecule `CCCCNC(=O)n1nc(-c2cccc(N)c2)c2cc3c(cc2c1=O)OCO3` gave a Rm in data set [1] of 0.01. Moreover, the ED50 in [2] came to 31.6 µmol/kg; in data set [3], 22.4 µmol/kg. Also, in data set [4], the TD50 was found to be 101 µmol/kg. Further, the selectivity ratio in data set [5] was 3.2.

As for `CCCNC(=O)n1nc(-c2ccc(N)cc2)c2cc3c(cc2c1=O)OCO3`, in [1], the Rm is listed as -0.126. In addition, the values for the ED50 in data set [2] and in data set [3] were 15.8 µmol/kg and 6.82 µmol/kg, respectively. In addition, the TD50 in data set [4] was 52.8 µmol/kg. In data set [5], the selectivity ratio worked out at 3.3.

`CCCCCNC(=O)n1nc(-c2ccc(N)cc2)c2cc3c(cc2c1=O)OCO3` returned a Rm in [1] of 0.101. Also, the ED50 in [2] was determined as 13.2 µmol/kg; in data set [3], 5.34 µmol/kg. In [4], this molecule showed a TD50 of 56.6 µmol/kg. Further, the selectivity ratio in data set [5] turned out to be 4.3.

Consider `CC1=NN=C(c2ccc(N)cc2)c2cc3c(cc2C1)OCO3` [GYKI-52466], for which the Rm in data set [1] is listed as -0.304. The ED50 is 37.3 µmol/kg in [6], 43.1 µmol/kg in [7] and 63.8 µmol/kg in [8]. The molecule further yielded a TD50 in [9] of 76.1 µmol/kg. Also, in data set [10], the selectivity ratio came to 2.1.

Regarding `O=[N+]([O-])c1ccc(-c2nnc(O)c3cc4c(cc23)OCO4)cc1`, the ED50 in data set [2] and in [3] was over 100 µmol/kg throughout.

In the case of `Nc1cccc(C2=NNC(=O)Cc3cc4c(cc32)OCO4)c1`, in data set [1], the Rm is reported as -0.372. Besides, the TD50 in data set [11] came to 101 µmol/kg. Moreover, the selectivity ratio in data set [10] is 5.6.

Source of the values: ChEMBL document CHEMBL1133456, “Synthesis and anticonvulsant activity of novel and potent 6,7-methylenedioxyphthalazin-1(2H)-ones” (J Med Chem, 2000).
